Data from patent US20250237649A1 (priority 2021, published 2025).
“Also recorded” adds a separate entry of the source. Like-named read-outs stand apart in the source and are kept apart here. Non-standard residues stand in square brackets, D forms with d. Residues, ends and D or L forms follow the SMILES beside them. *: point of attachment. Sta = CC(C)C[C@H](N)[C@@H](O)CC(=O)O; pNA = O=[N+]([O-])c1ccc(N*)cc1; Isovaleryl = CC(C)CC(=O)*; Cbz = O=C(OCc1ccccc1)*

How the values were obtained:
M. bovis cells [1] = assay type: cell-based, Mycobacterium bovis
[2] = Cytotoxicity towards RAW macrophages; assay type: cell-based; details: mouse, read-out: TC50, cytotoxicity towards RAW macrophages
Procedure: (§1) Cells were seeded in plates and incubated overnight in a humidified incubator at 37° C., 5% CO2. […] After 72-hours of incubation, CellTiter-Glo® reagent (Promega) was added to plates and the relative luminescent units (RLU) were measured using a Synergy 4 plate reader (Biotek). […] Growth inhibition curves were fitted using the Levenberg-Marquardt algorithm. The IC50 was defined as the compound concentration that produced 50% of the growth inhibitory response.

[3] = Cytotoxicity towards HepG2 hepatocytes; assay type: cell-based; details: human, read-out: TC50, cytotoxicity towards HepG2 hepatocytes
Procedure: as §1

THP1 macrophages = test: Cytotoxicity against THP1 macrophages; assay type: cell-based
Mtb in THP-1 macrophages = test: Antitubercular activity (Mtb survival) in THP-1 macrophages; assay type: cell-based, Mycobacterium tuberculosis; details: for IC50: Mycobacterium tuberculosis, THP1MACROPHAGES
Source text: FIG. 18A depicts time-dependent antitubercular activity in THP-1 macrophages. FIG. 18B depicts the average of the Hill slope values corresponding to the IC50 values used to plot the mean IC50 in FIG. 18A.

[4] = target: T1, purified recombinant Hip1 (Mycobacterium tuberculosis, UniProt P9WHR3); details: cited from earlier work
T1 sequence (P9WHR3 31-520): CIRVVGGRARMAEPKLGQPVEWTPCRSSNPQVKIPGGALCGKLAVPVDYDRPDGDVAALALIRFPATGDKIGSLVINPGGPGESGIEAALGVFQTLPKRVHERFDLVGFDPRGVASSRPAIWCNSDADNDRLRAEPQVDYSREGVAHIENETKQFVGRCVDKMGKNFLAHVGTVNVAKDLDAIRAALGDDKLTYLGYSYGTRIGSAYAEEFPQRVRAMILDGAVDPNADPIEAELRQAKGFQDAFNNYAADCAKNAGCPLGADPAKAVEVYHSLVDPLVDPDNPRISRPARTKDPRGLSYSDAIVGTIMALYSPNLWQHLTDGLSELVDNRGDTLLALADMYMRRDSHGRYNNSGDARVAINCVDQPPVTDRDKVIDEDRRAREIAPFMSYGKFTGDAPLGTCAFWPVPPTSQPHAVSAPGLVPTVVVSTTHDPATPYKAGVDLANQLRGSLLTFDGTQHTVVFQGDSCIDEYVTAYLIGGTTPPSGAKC

M. bovis cells [5] = assay type: cell-based, Mycobacterium bovis; details: cell culture
[6] = THP-1, 24 h, read-out: IC50 Mean ± SEM
[7] = THP-1, 72 h, read-out: IC50 Mean ± SEM
[8] = THP-1, 72 h, read-out: IC50 Range
[9] = THP-1 macrophages, time point 48 h, read-out: IC50 Mean ± SEM
[10] = THP-1 macrophages, time point 48 h, read-out: IC50 Range

CC(C)CC(=O)N[C@H](C(=O)N[C@H](C(=O)N[C@@H](CC(C)C)[C@@H](O)CC(=O)N[C@@H](C)C(=O)N[C@@H](CC(C)C)[C@@H](O)CC(=O)O)C(C)C)C(C)C [pepstatin] (Isovaleryl-VV[Sta]A[Sta]-OH)
Inhibition of cleavage of UFNG1 by M. bovis cells (M. bovis cells [1]; FRET substrate UFNG1): do not inhibit cleavage of UFNG1 appreciably

COC(=O)C(=O)[C@H](CC(C)C)NC(=O)[C@H](CCCCN)NC(=O)[C@H](Cc1ccccc1)NC(=O)OCc1ccccc1 [Cbz-Phe-Lys-Leu-CO—CO2Me]
CC50 at 72 h [2]: > 100 µM
CC50 at 72 h [3]: > 100 µM
Cytotoxicity against THP1 macrophages (THP1 macrophages): does not have significant cytotoxicity
IC50 (Mtb in THP-1 macrophages; [6]): 69.7 ± 18.7 µM
IC50 (Mtb in THP-1 macrophages; [7]): 13.9 ± 4.86 µM
IC50 (Mtb in THP-1 macrophages; [8]): 8.24 to 23.6 µM
IC50 (Mtb in THP-1 macrophages; [9]): 19.6 ± 4.98 µM
IC50 (Mtb in THP-1 macrophages; [10]): 12.7 to 29.3 µM
Mtb survival in THP1 macrophages (Mtb in THP-1 macrophages): effectively reduces Mtb survival
IC50 Range (Mtb in THP-1 macrophages; THP-1 macrophages, time point 24 h): 51.09 to 8.38 μM
Inhibition of cleavage of UFNG1 by M. bovis cells (M. bovis cells [1]; FRET substrate UFNG1): most significant inhibition

O=S(=O)(F)Cc1ccccc1 [PMSF, phenylmethylsulfonyl fluoride]
Inhibition of cleavage of UFNG1 by M. bovis cells (M. bovis cells [1]): did not significantly inhibit cleavage
Inhibition of Hip1 (studies have shown) [4]: not an effective inhibitor of purified recombinant Hip1; also recorded: poor inhibitor of Hip1

CC(C)C[C@H](NC(=O)[C@H]1O[C@@H]1C(=O)O)C(=O)NCCCCN=C(N)N [E-64]
Inhibition of cleavage of UFNG1 by M. bovis cells (M. bovis cells [1]; FRET substrate UFNG1): do not inhibit cleavage of UFNG1 appreciably

O=C(O)CN(CCN(CC(=O)O)CC(=O)O)CC(=O)O [EDTA]
Inhibition of cleavage of UFNG1 by M. bovis cells (M. bovis cells [1]; FRET substrate UFNG1): do not inhibit cleavage of UFNG1 appreciably

CC(C)C[C@H](NC(=O)[C@@H](NC(=O)N[C@@H](Cc1ccccc1)C(=O)O)[C@@H]1CCN=C(N)N1)C(=O)N[C@H](C=O)Cc1ccccc1 [chymostatin]
Inhibition of Hip1 (studies have shown) [4]: inhibit Hip1

COC(=O)C(=O)[C@H](C[C@@H]1CCNC1=O)NC(=O)[C@H](CCCCN)NC(=O)[C@H](Cc1ccccc1)NC(=O)OCc1ccccc1 [Inhibitor Compound 2, Cbz-Phe-Lys-Glnlac-CO—CO2Me]
Cytotoxicity against THP1 macrophages (THP1 macrophages): does not have significant cytotoxicity
IC50 (Mtb in THP-1 macrophages; [6]): 104 ± 39.1 µM
IC50 (Mtb in THP-1 macrophages; THP-1, 24 h, read-out: IC50 Range): 44.4 to 178 µM
IC50 (Mtb in THP-1 macrophages; [7]): 51.8 ± 14.7 µM
IC50 (Mtb in THP-1 macrophages; [8]): 25.6 to 53.3 µM
IC50 (Mtb in THP-1 macrophages; [9]): 58.4 ± 1.15 µM
IC50 (Mtb in THP-1 macrophages; [10]): 57.3 to 59.6 µM
Mtb survival in THP1 macrophages (Mtb in THP-1 macrophages): effectively reduces Mtb survival
Inhibition of cleavage of UFNG1 by M. bovis cells (M. bovis cells [1]; FRET substrate UFNG1): most significant inhibition

NCCc1ccc(S(=O)(=O)F)cc1 [AEBSF]
Inhibition of cleavage of UFNG1 by M. bovis cells (M. bovis cells [1]): most significant inhibition

CC(C)C[C@H](NC(=O)[C@H](CCCCN)NC(=O)[C@H](Cc1ccccc1)NC(=O)OCc1ccccc1)C(=O)Nc1ccc([N+](=O)[O-])cc1 [Cbz-Phe-Lys-Leu-pNa] (Cbz-Phe-Lys-Leu-pNA)
Cleavage of substrate by M. bovis cells (M. bovis cells [5]): cleaved by M. bovis

CC(=O)N[C@@H](CC(C)C)C(=O)N[C@@H](CC(C)C)C(=O)N[C@H](C=O)CCCNC(=N)N [leupeptin]
Inhibition of Hip1 (studies have shown) [4]: inhibit Hip1
